Laboratory results as given in patent US20040063680A1, “Method of treating stroke” (priority 2003, published 2004).

## CC(C)S(=O)(=O)NCC(C)(F)c1ccc(-c2ccc(CC#N)cc2)cc1 (stereo not shown) [Example 9, 2-{4-[4-(1-fluoro-1-methyl-2-{[(methylethyl)sulfonyl]amino}ethyl)phenyl]phenyl}ethanenitrile]
  melting point: 155 to 157 °C
